From PMC12603982 (Angewandte Chemie (International Ed. in English), 2025) come the findings set out here.

The target of one experiment is T1, hV1bR (Homo sapiens, UniProt P47901).
T1 construct: expressed in transfected cells; membrane preparation
T1 sequence (P47901 1-424): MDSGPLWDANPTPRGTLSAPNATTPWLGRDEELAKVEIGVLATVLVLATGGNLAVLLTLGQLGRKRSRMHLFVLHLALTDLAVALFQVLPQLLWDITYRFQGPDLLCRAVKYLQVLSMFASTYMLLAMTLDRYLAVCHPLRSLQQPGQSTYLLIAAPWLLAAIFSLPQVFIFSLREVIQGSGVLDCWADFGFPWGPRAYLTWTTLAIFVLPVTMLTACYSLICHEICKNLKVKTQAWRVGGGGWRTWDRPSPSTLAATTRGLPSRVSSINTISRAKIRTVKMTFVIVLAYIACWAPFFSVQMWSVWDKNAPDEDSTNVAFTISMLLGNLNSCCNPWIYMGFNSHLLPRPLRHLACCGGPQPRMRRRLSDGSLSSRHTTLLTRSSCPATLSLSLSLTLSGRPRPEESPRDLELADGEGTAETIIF
Put plainly: Radioligand displacement and saturation binding, membranes of HEK293 cells stably expressing hV1bR, [3H]-VP. Conditions: read-out: Ki hV1bR. A general note: In a radioligand displacement assay an active substance lowers the binding of a labelled ligand.

The test system of experiment [1] is human uterine smooth muscle cells (UtSMC). Kind of experiment: Stimulation of primary human uterine smooth muscle cells (UtSMC). It counts as cell-based.
Protocol: (§1) Finally, we evaluated whether tracer (11) is applicable in primary cells endogenously expressing OTR.
(§2) Primary UtSMC and hippocampal neuronal cultures.
(§3) Muscle Cell Basal Medium 2 (PromoCell), including supplements (PromoCell) and P/S (Gibco) at 37°C and 5%
(§4) CO2. Cells were trypsinized with 0.1% Trypsin/EDTA (Gibco) and plated on glass -bottom 96-well plates (CellVis)
(§5) at a density of 10,000 cells/well in full growth medium. The next day, cells were stimulated with tracer ( 11), OTA ,
(§6) dissociated with flame -polishe d Pasteur pipettes in Hank’s balanced salt solution (HBSS, Gibco). Tissue pieces
(§7) were subsequently enzymatically dissociated with 0.1% Trypsin/EDTA (Gibco) in Neurobasal A (NBA, Gibco)
(§8) containing 1,000U/mL DNase (Sigma) for 5 min at 37°C. Cells were triturated with flamed Pasteur pipettes,
(§9) filtered through a 40 µm nylon mesh ( Thermo Fisher Scientific ), centrifuged at 200 g for 5 min, and washed up to
(§10) three times in NBA containing P/S (Gibco), GlutaMax (Gibco) , and B27 supplement (Gibco). Cells were plated at
(§11) 20,000 cells/well on PDL -coated (Sigma) glass -bottom black 96 -well microscopy plates (Cellvis) and grown at
(§12) 37°C with 5% CO 2. Half of the medium was replaced every 3 -4 days. After 13 -14 days in vitro , neuronal cultures
(§13) were exposed to 100 nM tracer ( 11) for one hour, with or without 30-min pretreatment with 10 µM of the peptide
antagonist OTA. In parallel, neurons were exposed to 100 nM of the scrambled tracer SCR for 1 h. After
stimulations, cells were washed with ice-cold PBS and fixed with 4% paraformaldehyde for 30 min on ice. Next,
washed again in PBS, and directly imaged on a Zeiss LSM880 confocal microscope.
The target in a further experiment is T2, mV1aR (Mus musculus, UniProt Q62463).
T2 construct: expressed in transfected cells; host or cells: wild-type HEK293, transient transfection (jetPRIME); membrane preparation
Kind of experiment: Radioligand displacement, membranes of HEK293 cells transiently expressing mV1aR. It counts as binding. As to conditions: murine receptor, transient expression; mean ± SD.

A further experiment concerns the target T3, mV1bR (Mus musculus, UniProt Q9WU02).
T3 construct: expressed in transfected cells; host or cells: wild-type HEK293, transient transfection (jetPRIME); membrane preparation
T3 sequence (Q9WU02 1-421): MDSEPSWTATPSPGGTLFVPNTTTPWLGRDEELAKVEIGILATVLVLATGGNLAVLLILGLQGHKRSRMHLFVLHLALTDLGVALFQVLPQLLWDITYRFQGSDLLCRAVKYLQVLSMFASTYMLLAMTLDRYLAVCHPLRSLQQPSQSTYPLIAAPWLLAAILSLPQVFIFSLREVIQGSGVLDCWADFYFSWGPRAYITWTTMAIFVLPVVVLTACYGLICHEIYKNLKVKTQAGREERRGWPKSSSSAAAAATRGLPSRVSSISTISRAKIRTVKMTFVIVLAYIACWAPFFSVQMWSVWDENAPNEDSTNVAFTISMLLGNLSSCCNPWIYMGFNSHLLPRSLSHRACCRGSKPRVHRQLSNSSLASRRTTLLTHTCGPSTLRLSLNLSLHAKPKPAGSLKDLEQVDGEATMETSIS
Put plainly: Radioligand displacement, membranes of HEK293 cells transiently expressing mV1bR. It counts as binding. Conditions: murine receptor, transient expression; mean ± SD.

The target in the next experiment is T4, hOTR (Homo sapiens, UniProt P30559).
T4 construct: expressed in transfected cells
T4 sequence (P30559 1-389): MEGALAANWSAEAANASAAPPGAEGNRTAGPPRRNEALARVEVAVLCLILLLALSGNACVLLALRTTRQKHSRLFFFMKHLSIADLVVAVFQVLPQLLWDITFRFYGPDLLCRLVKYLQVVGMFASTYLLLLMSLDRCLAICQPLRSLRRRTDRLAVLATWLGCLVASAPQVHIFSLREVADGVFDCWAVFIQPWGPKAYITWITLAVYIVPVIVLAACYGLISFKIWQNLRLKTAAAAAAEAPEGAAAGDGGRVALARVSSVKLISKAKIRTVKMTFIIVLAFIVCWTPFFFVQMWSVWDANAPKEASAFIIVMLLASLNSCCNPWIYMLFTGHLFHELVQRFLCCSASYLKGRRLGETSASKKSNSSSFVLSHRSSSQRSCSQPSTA
Kind of experiment: Radioligand displacement and saturation binding, membranes of HEK293 cells stably expressing hOTR, [3H]-OT. Conditions: for Ki: [3H]-OT, mean ± SD, duplicates, at least three independent experiments, read-out: Ki hOTR.

The target in the next experiment is T5, mV2R (Mus musculus, UniProt O88721).
T5 construct: expressed in transfected cells; host or cells: wild-type HEK293, transient transfection (jetPRIME); membrane preparation
Kind of experiment: Radioligand displacement, membranes of HEK293 cells transiently expressing mV2R. It counts as binding. Conditions: murine receptor, transient expression; mean ± SD.

A further experiment concerns the target T6, mOTR (Mus musculus, UniProt P97926).
T6 construct: expressed in transfected cells; host or cells: wild-type HEK293, transient transfection (jetPRIME); membrane preparation
T6 sequence (P97926 1-388): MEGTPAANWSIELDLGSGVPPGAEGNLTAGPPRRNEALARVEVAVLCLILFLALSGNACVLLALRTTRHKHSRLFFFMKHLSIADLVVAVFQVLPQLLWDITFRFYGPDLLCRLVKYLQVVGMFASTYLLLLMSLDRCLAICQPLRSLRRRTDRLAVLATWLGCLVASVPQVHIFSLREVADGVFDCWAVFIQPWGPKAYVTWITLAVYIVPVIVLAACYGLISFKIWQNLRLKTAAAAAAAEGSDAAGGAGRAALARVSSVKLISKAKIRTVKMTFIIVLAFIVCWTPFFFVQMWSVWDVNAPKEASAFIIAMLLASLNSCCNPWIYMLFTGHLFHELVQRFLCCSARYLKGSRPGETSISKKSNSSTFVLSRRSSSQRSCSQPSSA
Put plainly: Radioligand displacement, membranes of HEK293 cells transiently expressing mOTR. It counts as binding, murine.

The target of another experiment is T7, hV1aR (Homo sapiens, UniProt P37288).
T7 construct: expressed in transfected cells
Put plainly: Radioligand displacement and saturation binding, membranes of HEK293 cells stably expressing hV1aR, [3H]-VP. Conditions: read-out: Ki hV1aR.

The next experiment has as its target T8, hV2R (Homo sapiens, UniProt P30518).
T8 construct: expressed in transfected cells; membrane preparation
Put plainly: Radioligand displacement and saturation binding, membranes of HEK293 cells stably expressing hV2R, [3H]-VP. As to conditions: read-out: Ki hV2R.

For experiment [2], the system named is rat embryonic hippocampal neurons. Kind of experiment: Tracer uptake in primary rat hippocampal neurons. It counts as cell-based. Conditions: 10 µM, 30 min.
Protocol: as §1, §2, §3, §4, §5, §6, §7, §8, §9, §10, §11, §12, §13
antagonist OTA. […]
Experiment [3] concerns mouse embryonic hippocampal neurons. Put plainly: Tracer uptake in primary mouse hippocampal neurons. It counts as cell-based.
Protocol: as §1, §2, §3, §4, §5, §6, §7, §8, §9, §10, §11, §12, §13
antagonist OTA. […]
Experiment [4] concerns the target T9, hOTR-GFP in HEK293 cells (Homo sapiens, UniProt P30559).
T9 sequence (P30559 1-389): T4 sequence (P30559 1-389)
Kind of experiment: hOTR-GFP internalization and tracer uptake, confocal microscopy after fixation/ICC. It counts as cell-based. More on the design: expressed in transfected cells.
Description: To validate the application scope of our tracers for biological systems and post‐hoc imaging, we used HEK293 cells stably overexpressing human OTR or V1aR, tagged with a C‐terminal fused green fluorescent protein to visualize receptor trafficking (hOTR‐GFP or hV1aR‐GFP, respectively).
subsequently washed with PBS and processed for immunocytochemistry.
Immunocytochemistry and imaging. Unspecific protein binding was quenched with 5% normal donkey serum
(Jackson ImmunoResearch), 2% bovine serum albumin (Sigma-Aldrich, Merck), and 0.2% Triton X-100 (Sigma-
Aldrich, Merck) in PBS. Next, cells were exposed to primary antibody cocktails containing FITC-conjugated goat-
anti-GF (1:2000, Sigma-Aldrich, Merck) and mouse pCREB (1:300, Sigma-Aldrich, Merck) in PBS with 2%
normal donkey serum, 0.1% BSA, and 0.2% Triton X-100 overnight at 4°C. After three PBS washing steps, wells
were incubated with secondary antibody cocktails (1:400, Jackson Immuno Research) containing suitable
were mounted with glycerol gelatin (Sigma-Aldrich, Merck) and imaged on a Zeiss LSM 780/880 confocal
microscope (Zeiss). Images were analyzed and equally contrasted for visualization with ZEN Pro (Zeiss) and

Experiment [5] concerns the target T9, hOTR-GFP in HEK293 cells. Put plainly: Live-cell imaging (ZEISS Lattice SIM) of hOTR-GFP internalization. As to conditions: 10 and 100 nM tracer.
Protocol: We first exposed hOTR‐GFP cells to 10 and 100 nM of tracer (11) during acquisition with a ZEISS Lattice SIM microscope (Movies S1 and S2). […] To further disentangle the dynamics of our tracer‐mediated OTR engagement and trafficking, we evaluated its applicability in single‐particle tracking (SPT) in living cells. We cultured HEK293 (parent cells) and HEK293 cells stably expressing hOTR‐GFP (HEK293‐hOTR‐GFP) and performed total internal reflection microscopy (TIRFM) SPT universal point accumulation imaging in nanoscale topography (uPAINT) following the addition of 1 nM of tracer (10). […] This concentration was selected to facilitate the detection and tracking of single molecules of the fluorescent agonist tracer following binding to hOTR at the plasma membrane by uPAINT. […] We first assessed the number of tracks (indicative of the number of single molecules detected/tracked). […] We quantified the mean squared displacement of each trajectory to calculate its apparent diffusion coefficient. The diffusion coefficient of each trajectory of the tracer bound to hOTR was plotted as a frequency distribution (Figure 7b2 ).
Live cell imaging. For 3D live cell imaging, attached and serum -starved HEK293-hOTR-GFP cells in 96-well
glass bottom plates were imaged on a ZEISS Lattice SIM Microscope using a 40x oil objective and SIM 2 post- […]

Starred links: 1 amine or outer side, 2 acyl side, 3 side chain; linkers in the order of their positions; H or OH if unused. Positions of bridges follow the written chain, without caps; N, C: chain ends. Non-standard residues stand in square brackets, D forms with d. Residues, ends and D or L forms follow the SMILES beside them. Groups on a side chain read outwards from the residue. *: point of attachment. X1 = CCN1C(=CC=CC2=[N+](CCCCCC(=O)*)c3ccc(S(=O)(=O)O)cc3C2(C)C)C(C)(C)c2cc(S(=O)(=O)[O-])ccc21; d(εLys) = N[C@H](CCCCN[*:1])C(=O)[*:2]; X2 = O=C(CC1(S[*:2])CCCCC1)[*:1]; PEG5 = NCCOCCOCCOCCOCCOCCC(=O)O; Orn = NCCC[C@H](N)C(=O)O; Mpa = O=C(O)CCS A value given as a limit tells only on which side of the number the result lay.

T5 sequence (O88721 whole entry): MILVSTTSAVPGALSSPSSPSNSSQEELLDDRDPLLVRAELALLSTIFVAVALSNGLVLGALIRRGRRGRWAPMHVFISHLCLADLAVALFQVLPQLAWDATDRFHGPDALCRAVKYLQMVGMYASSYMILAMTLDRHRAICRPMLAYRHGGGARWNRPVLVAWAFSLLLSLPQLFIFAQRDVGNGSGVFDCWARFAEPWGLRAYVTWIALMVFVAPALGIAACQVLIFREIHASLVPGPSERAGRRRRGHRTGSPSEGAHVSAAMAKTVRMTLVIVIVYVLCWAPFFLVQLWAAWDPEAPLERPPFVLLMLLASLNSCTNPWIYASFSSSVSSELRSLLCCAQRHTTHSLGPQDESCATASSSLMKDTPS
T8 sequence (P30518 whole entry): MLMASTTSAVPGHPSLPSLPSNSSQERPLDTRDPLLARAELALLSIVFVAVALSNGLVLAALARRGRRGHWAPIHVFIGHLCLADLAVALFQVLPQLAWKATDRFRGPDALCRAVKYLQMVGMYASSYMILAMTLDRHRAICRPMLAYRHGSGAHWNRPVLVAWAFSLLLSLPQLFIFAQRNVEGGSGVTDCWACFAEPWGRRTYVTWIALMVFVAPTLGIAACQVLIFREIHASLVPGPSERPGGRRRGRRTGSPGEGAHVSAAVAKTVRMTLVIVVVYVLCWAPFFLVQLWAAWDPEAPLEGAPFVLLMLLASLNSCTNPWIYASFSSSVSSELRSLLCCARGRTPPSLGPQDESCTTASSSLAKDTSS
T7 sequence (P37288 whole entry): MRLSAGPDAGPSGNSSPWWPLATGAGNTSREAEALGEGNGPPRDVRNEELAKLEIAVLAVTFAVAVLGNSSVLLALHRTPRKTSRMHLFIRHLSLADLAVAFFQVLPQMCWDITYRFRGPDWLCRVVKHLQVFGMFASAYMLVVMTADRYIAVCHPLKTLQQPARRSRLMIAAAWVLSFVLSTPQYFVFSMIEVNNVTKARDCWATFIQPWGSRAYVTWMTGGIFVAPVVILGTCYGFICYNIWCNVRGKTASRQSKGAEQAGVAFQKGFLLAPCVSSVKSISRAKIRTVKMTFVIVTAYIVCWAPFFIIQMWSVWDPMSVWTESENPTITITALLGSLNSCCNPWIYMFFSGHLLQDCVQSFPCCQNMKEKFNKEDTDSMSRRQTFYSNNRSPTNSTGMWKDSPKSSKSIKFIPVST
T2 sequence (Q62463 whole entry): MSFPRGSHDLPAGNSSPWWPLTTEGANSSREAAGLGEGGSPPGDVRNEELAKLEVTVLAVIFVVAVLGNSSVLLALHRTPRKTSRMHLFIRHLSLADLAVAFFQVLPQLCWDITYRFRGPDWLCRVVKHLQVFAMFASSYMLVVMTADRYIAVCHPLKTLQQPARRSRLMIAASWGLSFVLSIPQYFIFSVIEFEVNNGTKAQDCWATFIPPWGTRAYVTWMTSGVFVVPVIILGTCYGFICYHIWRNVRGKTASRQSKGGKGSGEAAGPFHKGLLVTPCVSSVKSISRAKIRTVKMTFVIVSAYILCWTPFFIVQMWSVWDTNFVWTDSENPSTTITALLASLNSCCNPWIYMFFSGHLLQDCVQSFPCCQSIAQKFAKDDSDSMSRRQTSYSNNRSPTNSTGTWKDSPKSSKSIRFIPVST
Protocol for hV1aR: (§14) Membrane preparation for radioligand assays. HEK293 cells were used for stable expression of GFP-tagged
(§15) human OTR, V1aR, V1bR, and V2R isoforms and transient expression of murine OTR, V1aR, V1bR, and V2R
(§16) isoforms. Cell culture work was performed under sterile conditions with DMEM high glucose containing 10%
(§17) FBS, and 50 U/mL P/S. Cells were cultured in 10 cm diameter cell culture dishes at 37°C in a humidified
(§18) atmosphere with 5% CO2, and cells were passaged at 70-90% confluency.
(§19) medium of stable cell lines at 0.5 mg/mL to sustain selection pressure, and cells were harvested at 90% confluency
(§20) for membrane preparation. For transient expression of murine receptors, 60% confluent wild-type HEK293 cells
(§21) were transfected using the jetPRIME transfection reagent according to the manufacturer’s protocol and harvested
(§22) 48 h post-transfection. For membrane preparation, cells were washed with ice-cold PBS pH 7.4, scraped into fresh
(§23) PBS on ice, and centrifuged at 4°C and 178 g for 10 min. The pellet was resuspended in a TRIS buffer solution
(§24) ice-cold water bath sonicator. The obtained solution was centrifuged for 20 min at 54,192 g and 4°C. The obtained […]
Specific binding was determined by […]
(§25) assessed Kd values of radiotracers and by fitting the data to a three -parameter logistic Hill equation and applying […]
(§26) concentration was determined using a Tri -Carb liquid scintillation analyzer. […]
Protocol for hV1bR: as §14, §15, §16, §17, §18, §19, §20, §21, §22, §23, §24
Specific binding was determined by […]
as §25, §26
Protocol for hV2R: as §14, §15, §16, §17, §18, §19, §20, §21, §22, §23, §24
Specific binding was determined by […]
as §25, §26
Protocol for mOTR: as §14, §15, §16, §17, §18, §19, §20, §21, §22, §23
ice-cold water bath sonicator. The obtained solution was centrifuged for 20 min at 54,192 g and 4°C. The obtained
pellet was resuspended in TRIS buffer without protease inhibitors, homogenized with an ultrasonicator, aliquoted,
and stored at -80°C until further use. A BCA assay was used to determine the protein concentration of the
Radioligand displacement and saturation experiments. Assay solutions consisting of competing ligand,
radioligand, and membrane preparation were incubated for 1 h at 37°C. Standard binding buffer solution (50 mM
TRIS, 5 mM MgCl2, 0.1% BSA, pH 7.4) was used to prepare all dilutions; the final assay volume was 200 µL.
concentrations were 8 μg/vial for hOTR, 5 μg/vial for hV1aR, and 3 μg/vial for hV1bR and hV2R, respectively , and
4 μg/vial for mOTR, 1.5 μg/vial for m V1aR, 3 μg/vial for mV 1bR, and 10 μg/vial for mV 2R. To assess non-specific
Specific binding was determined by
subtraction of the non-specific binding from the total binding. In radioligand displacement experiments, semi -
logarithmically spaced concentrations of respective test ligands were applied to determine K i values based on
assessed Kd values of radiotracers and by fitting the data to a three -parameter logistic Hill equation and applying
the Cheng and Prusoff approximation. 10 In case of human receptors from stable cell lines, Kd and Bmax values were
In case of murine receptors from transient
was performed using GraphPad Prism (version 9.5.1) . After incubation, membranes were filtered and washed on
a Skatron Cell Harvester using polyethyleneimine -coated glass fiber filters (type B, soaked in 0.1% aqueous
1 mM MgCl2, pH 7.4, 4°C). […]
as §26
Protocol for mV1aR: as §14, §15, §16, §17, §18, §19, §20, §21, §22, §23
(§27) The obtained solution was centrifuged for 20 min at 54,192 g and 4°C. The obtained […]
as §25, §26
Protocol for mV1bR: as §14, §15, §16, §17, §18, §19, §20, §21, §22, §23, §27, §25, §26
Protocol for mV2R: as §14, §15, §16, §17, §18, §19, §20, §21, §22, §23, §27, §25, §26

By Ki is commonly meant the equilibrium dissociation constant of an inhibitor or competing ligand from its target. As for `CC[C@H](C)[C@@H]1NC(=O)[C@@H](Cc2ccc(O)cc2)NC(=O)CC2(CCCCC2)SSC[C@@H](C(=O)N2CCC[C@H]2C(=O)N[C@@H](CCCN)C(=O)O)NC(=O)[C@H](CC(N)=O)NC(=O)[C@H]([C@@H](C)O)NC1=O` [OTR antagonist (OTA), reference compound] ([dY]ITNCP[Orn]-OH; linker N-5 via X2), the inhibitory constant (Ki) is more than 10000 nM at hV1bR; more than 10000 nM on mV1aR; more than 10000 nM on mV1bR; 44.9 ± 8.8 nM on hOTR; 3010 ± 346 nM on mV2R; 5.9 ± 1.7 nM on mOTR (murine receptor, transient expression, mean ± SD). Besides, the inhibition constant Ki is 45.8 ± 11.9 nM at hV1aR and more than 10000 nM at hV2R. For the same compound, in experiment [1], the “Effect of OTA pretreatment on tracer (11) in UtSMC” value was “prevented tracer uptake as well as cellular contractions and membrane blebbing”. Also, on hOTR (Ki ratio, VPR affinity divided by OTR affinity), the “Selectivity ratio hV1aR/hOTR” value is listed as 1.02. Moreover, the “Selectivity ratio mV1aR/mOTR” value at mOTR (Ki ratio) is given as more than 1500. The “Selectivity ratio mV1bR/mOTR” value at mOTR (Ki ratio) was more than 1500. Also, the “Selectivity ratio mV2R/mOTR” value on mOTR (Ki ratio) is 510. The “Effect of OTA pretreatment on tracer (11) uptake in rat hippocampal neurons” value in experiment [2] was “prevented compound (11) internalization”. In addition, the “Effect of OTA pretreatment on tracer (11) uptake in mouse hippocampal neurons” value in experiment [3] (10 µM, 30 min) was “completely inhibited the uptake”. Besides, the “Effect of antagonist pretreatment on hOTR-GFP internalization and accumulation of tracers (3) and (7)” value on hOTR-GFP in HEK293 cells [4] (10 µM, 30 min before 1 h stimulation with 100 nM tracer) is “prevented hOTR‐GFP internalization and cytoplasmic accumulation”. Moreover, the “Effect of antagonist pretreatment on tracer (11) uptake” value at hOTR-GFP in HEK293 cells [4] (10 µM, 30 min pretreatment) was “completely prevented tracer (11) uptake”. Also, at hOTR-GFP in HEK293 cells [4] (10 µM, 30 min pretreatment, tracer (13) up to 100 nM), the “Effect of antagonist pretreatment on tracer (13) uptake and GFP internalization” value was “completely prevented”.
As to `CC[C@H](C)[C@@H]1NC(=O)[C@H](Cc2ccc(O)cc2)NC(=O)CCSSC[C@@H](C(=O)N2CCC[C@H]2C(=O)N[C@@H](CCCNC(=O)[C@@H](CC(=O)O)NC(=O)CCOCCOCCOCCOCCOCCNC(=O)[C@H](N)CCCCNC(=O)CCCCC[N+]2=C(C=CC=C3N(CC)c4ccc(S(=O)(=O)[O-])cc4C3(C)C)C(C)(C)c3cc(S(=O)(=O)O)ccc32)C(=O)NCC(N)=O)NC(=O)[C@H](CC(N)=O)NC(=O)[C@H](CCC(N)=O)NC1=O` [Compound 11] ([Mpa]YIQNCP[Orn]([dD-PEG5-d(εLys)-X1])G-NH2; disulfide 1-6), in [1] (100 nM, live-cell imaging), the “Contraction of UtSMC” value is given as “induced rapid contractions within minutes”. Further, the “Tracer uptake in UtSMC” value in experiment [1] (60 min treatment) is on record as “accumulation was observed in vesicle‐like structures within 60 min”. Besides, the “Time to peak internalization” value on hOTR-GFP in HEK293 cells [5] lay within 5 to 10 min. Moreover, the inhibition constant (Ki) was 2 nM on hOTR and more than 10000 nM on mV2R. For the same compound, the “Tracer uptake in mouse hippocampal neurons” value in experiment [3] (100 nM, 1 h, E16.5 neurons cultured 14 days) was “robust uptake in subpopulations of neurons”. For the same compound, the “Cy3s signal accumulation in hOTR-expressing cells” value on hOTR-GFP in HEK293 cells [4] (post ICC, normalized to control) is “significant concentration‐dependent accumulation”.
